Results: article PMC6155626 (Molecules : A Journal of Synthetic Chemistry and Natural …, 2016)
Converted amounts (≈) assume the structure as drawn. “And” between values parts separate entries of the source, which are not always exact repeats. Identical values can stand only once. Like-named read-outs stand apart in the source and are kept apart here.

Legend:
X. oryzae in rice plant [1] = conditions: 200 μg/mL; cited from earlier work
X. oryzae in rice plant [2] = assay type: in vivo, Xanthomonas oryzae pv. oryzae; conditions: 200 μg/mL, 14 days after spraying
[3] = tested on: Xanthomonas oryzae pv. oryzae; test: microbe, parasite or virus in culture; assay type: cell-based; conditions: for inhibition at 100 µg/mL: read-out: Inhibition rate, X. oryzae, 100 μg/mL, average of three replicates; for inhibition at 200 µg/mL: read-out: Inhibition rate, X. oryzae, 200 μg/mL, average of three replicates; for Inhibition rate: average of three replicates
[4] = tested on: Xanthomonas axonopodis pv. citri; test: microbe, parasite or virus in culture; assay type: cell-based; conditions: for inhibition at 100 µg/mL / inhibition at 200 µg/mL: read-out: Inhibition rate
tobacco leaves = conditions: for Necrosis (lesion diameter) on tobacco leaves: Nicotiana benthamiana (tobacco)
[5] = tested on: rice seeds (Fengyou Xiangzhan)
Ralstonia solanacearum [6] = test: microbe, parasite or virus in culture; assay type: cell-based; conditions: for EC50 / Inhibition rate: R. solanacearum; for inhibition at 100 µg/mL / inhibition at 200 µg/mL: read-out: Inhibition rate; for Inhibition rate: average of three replicates
[7] = tested on: Xanthomonas oryzae pv. oryzae; conditions: X. oryzae, previously reported analog, cited from earlier work
Ralstonia solanacearum [8] = conditions: R. solanacearum, previously reported analog, cited from earlier work
[9] = Fengyou Xiangzhan, rice, in vivo
[10] = 50 to 300 μM, four days after inoculation

In the case of S=c1[nH]nc(NCNc2n[nH]c(=S)s2)s1 [Bismerthiazol, 5,5′-(methylenediimino)bis-1,3,4-Thiadiazole-2(3H)-thione, reference compound], the “Control efficiency against rice bacterial leaf blight” value (X. oryzae in rice plant [1]) is listed as 25.49%, the “Disease Index” value (X. oryzae in rice plant [2]) is listed as 60.0 and the Morbidity (X. oryzae in rice plant [2]) is listed as 100.0%. The “Protective Efficiency” value (X. oryzae in rice plant [2]) was 25.6% and 25.6 ± 4.4%, the EC50 ([3]; Xanthomonas oryzae) was 92.6 ± 2.15 µg/mL (≈ 333 µM) and the inhibition at 100 µg/mL ([3]; Xanthomonas oryzae) was 54%. It also gave an inhibition at 200 µg/mL ([3]; Xanthomonas oryzae) of 72%, an EC50 [4] of 119.5 ± 5.1 µg/mL and an EC50 ([4]; Xanthomonas axonopodis) of 119 µg/mL. For the same molecule, the EC50 ([4]; Xanthomonas axonopodis, read-out: Bactericidal EC50 in molar terms) was roughly 333 µM, the inhibition at 100 µg/mL ([4]; Xanthomonas axonopodis) was 45% and the inhibition at 200 µg/mL ([4]; Xanthomonas axonopodis) was 67%. The “Necrosis (lesion diameter) on tobacco leaves” value (“Necrosis (lesion diameter)” below) (tobacco leaves; in vivo) was 0.2–0.3 cm, the “Phytotoxic effect on tobacco plant (in words)” value (shortened to “Phytotoxic effect”) (tobacco leaves; in vivo) was “no or negligible phytotoxic effect” and the “Concentration showing phytotoxicity on rice germination” value [5, 9] was 300 µM. It also gave an EC50 (Ralstonia solanacearum [6]; Ralstonia solanacearum) of 59.7 ± 2.56 µg/mL (≈ 214 µM), an inhibition at 100 µg/mL (Ralstonia solanacearum [6]; Ralstonia solanacearum) of 99% and an inhibition at 200 µg/mL (Ralstonia solanacearum [6]; Ralstonia solanacearum) of 100%.
CS(=O)(=O)c1nnc(COc2ccc(Cl)cc2Cl)o1 [Compound 5I-4, 2-((2,4-Dichlorophenoxy)methyl)-5-(methylsulfonyl)-1,3,4-oxadiazole] gave a Morbidity (X. oryzae in rice plant [2]) of 100.0%, an EC50 ([3]; Xanthomonas oryzae) of 0.72 ± 0.15 µg/mL (≈ 2.23 µM) and an inhibition at 100 µg/mL ([3]; Xanthomonas oryzae) of 100%. The inhibition at 200 µg/mL ([3]; Xanthomonas oryzae) was 100%, the EC50 ([4]; Xanthomonas axonopodis) was 49 ± 2.34 µg/mL and the inhibition at 100 µg/mL ([4]; Xanthomonas axonopodis) was 48%. The inhibition at 200 µg/mL ([4]; Xanthomonas axonopodis) was 69%, the “Necrosis (lesion diameter)” value (tobacco leaves; in vivo) was 0.2–0.3 cm and the “Phytotoxic effect” value (tobacco leaves; in vivo) was “no or negligible phytotoxic effect”. For the same molecule, the “Phenotypic effect on rice seedlings, root growth and shoot development (in words)” value (“Phenotypic effect on rice seedlings” below) [5, 9] was “severely inhibited both root growth and shoot development even at the lowest concentration 1 μM”, the “Phenotypic effect on rice seedlings” value ([5]; concentration (1–300 μM)) was “highly suppressed both root and shoot development” and the EC50 (Ralstonia solanacearum [6]; Ralstonia solanacearum) was 20.5 ± 1.56 µg/mL (≈ 63.5 µM). It also gave an inhibition at 100 µg/mL (Ralstonia solanacearum [6]; Ralstonia solanacearum) of 100% and an inhibition at 200 µg/mL (Ralstonia solanacearum [6]; Ralstonia solanacearum) of 100%.
In the case of CS(=O)(=O)c1nnc(Cc2ccc(Cl)cc2)o1 [C00001 (R = 4-Cl, X = CH2)], the EC50 ([7]; X = CH2) is given as 12.23 ± 1.45 ^15 μg/mL.
In the case of Nc1nnc([S-])s1.Nc1nnc([S-])s1.[Cu+2] [Thiodiazole-copper, 2-amino-5-mercapto-1,3,4-thiadiazole-copper, reference compound], the “Disease Index” value (X. oryzae in rice plant [2]) is reported as 55.6, the Morbidity (X. oryzae in rice plant [2]) is reported as 100.0% and the “Protective Efficiency” value (X. oryzae in rice plant [2]) is reported as 32.0 ± 3.0%. For the same molecule, the “Protective Efficiency” value (X. oryzae in rice plant [2]; listed as Thiadiazole-copper) was 32.0%, the EC50 ([3]; X. oryzae) was 121.82 ± 3.59 µg/mL and the Inhibition rate ([3]; X. oryzae, 100 μg/mL) was 35%. For the same molecule, the Inhibition rate ([3]; X. oryzae, 200 μg/mL) was 69%, the EC50 [4] was 107.04 ± 1.96 µg/mL and the Inhibition rate [4] was 65% and 47%. The EC50 (Ralstonia solanacearum [6]) was greater than 200 µg/mL, the Inhibition rate (Ralstonia solanacearum [6]; 100 μg/mL) was 35% and the Inhibition rate (Ralstonia solanacearum [6]; 200 μg/mL) was 50%.
In the case of CS(=O)(=O)c1nnc(-c2ccc(Cl)cc2Cl)o1 [C00001 (R = 2,4-di Cl, X = No Atom)], the EC50 (Ralstonia solanacearum [8]; X = No Atom) is listed as 16.55 ± 1.12 ^14 μg/mL and the EC50 ([7]; X = No Atom) is listed as 52.14 ± 1.05 ^16 μg/mL.
In the case of CS(=O)(=O)c1nnc(-c2ccc(F)cc2)o1 [C00001 (R = F, X = No Atom), 2-(4-fluorophenzyl)-5-(methylsulfonyl)-1,3,4-oxadiazole], the EC50 (Ralstonia solanacearum [8]; X = No Atom) is given as 8.29 ± 0.56 ^14 μg/mL and the EC50 ([7]; X = No Atom) is given as 9.89 ± 1.52 ^16 μg/mL.
In the case of CS(=O)(=O)c1nnc(Cc2ccc(F)cc2)o1 [C00001 (R = F, X = CH2), 2-(4-fluorobenzyl)-5-(methylsulfonyl)-1,3,4-oxadiazole], the EC50 ([7]; X = CH2) is listed as 1.07 ± 0.68 ^15 μg/mL.
With CS(=O)(=O)c1nnc(COc2ccc(F)cc2)o1 [Compound 5I-1, 2-(4-Fluorophenoxymethyl)-5-(methylsulfonyl)-1,3,4-oxadiazole] the “Disease Index” value (X. oryzae in rice plant [2]) was 15.6, the Morbidity (X. oryzae in rice plant [2]) was 100.0% and the “Protective Efficiency” value (X. oryzae in rice plant [2]) was 90.4% and 90.4 ± 2.8%. For the same molecule, the EC50 ([3]; Xanthomonas oryzae) was 0.45 ± 0.06 µg/mL (≈ 1.65 µM), the inhibition at 100 µg/mL ([3]; Xanthomonas oryzae) was 100% and the inhibition at 200 µg/mL ([3]; Xanthomonas oryzae) was 100%. For the same molecule, the melting point was 108 to 110 °C, the EC50 ([4]; Xanthomonas axonopodis) was 80.5 ± 5.38 µg/mL and the inhibition at 100 µg/mL ([4]; Xanthomonas axonopodis) was 72%. The inhibition at 200 µg/mL ([4]; Xanthomonas axonopodis) was 80%, the “Phytotoxic effect” value (tobacco leaves; [10]) was “no apparently phytotoxicity” and the “Necrosis (lesion diameter)” value (tobacco leaves; in vivo) was 0.2–0.3 cm. The “Phytotoxic effect” value (tobacco leaves; in vivo) was “no or negligible phytotoxic effect”, the “Phenotypic effect on rice seedlings” value [5, 9] was “barely effected root growth or inhibited shoot development at concentration 1–100 μM” and the “Phenotypic effect on rice seedlings” value ([5]; concentration (1–300 μM)) was “no apparently phytotoxicity”. The EC50 (Ralstonia solanacearum [6]) was 1.97 ± 0.23 µg/mL (≈ 7.24 µM), the EC50 (Ralstonia solanacearum [6]; Ralstonia solanacearum) was 1.67 µg/mL (≈ 6.13 µM) and the inhibition at 100 µg/mL (Ralstonia solanacearum [6]; Ralstonia solanacearum) was 100%. It also gave an inhibition at 200 µg/mL (Ralstonia solanacearum [6]; Ralstonia solanacearum) of 100%.
For CS(=O)(=O)c1nnc(Cc2ccc(Cl)cc2Cl)o1 [C00001 (R = 2,4-di Cl, X = CH2)], the EC50 (Ralstonia solanacearum [8]; X = CH2) is listed as 59.9 ^26 μg/mL and the EC50 ([7]; X = CH2) is listed as 1.96 ± 0.99 ^15 μg/mL.
For CS(=O)(=O)c1nnc(-c2ccc(Cl)cc2)o1 [C00001 (R = 4-Cl, X = No Atom)], the EC50 (Ralstonia solanacearum [8]; X = No Atom) is listed as 120.90 ± 2.6 ^14 μg/mL and the EC50 ([7]; X = No Atom) is listed as 23.21 ± 0.98 ^16 μg/mL.
In the case of CS(=O)(=O)c1nnc(COc2ccc(Cl)cc2)o1 [Compound 5I-2, 2-((4-Chlorophenoxy)methyl)-5-(methylsulfonyl)-1,3,4-oxadiazole], the “Disease Index” value (X. oryzae in rice plant [2]) is reported as 23.8, the Morbidity (X. oryzae in rice plant [2]) is reported as 100.0% and the “Protective Efficiency” value (X. oryzae in rice plant [2]) is reported as 77.7% and 77.7 ± 3.4%. It also gave an EC50 ([3]; Xanthomonas oryzae) of 1.44 ± 0.18 µg/mL (≈ 4.99 µM), an inhibition at 100 µg/mL ([3]; Xanthomonas oryzae) of 100% and an inhibition at 200 µg/mL ([3]; Xanthomonas oryzae) of 100%. For the same molecule, the melting point was 113 to 114 °C, the EC50 ([4]; Xanthomonas axonopodis) was 31.4 ± 3.56 µg/mL and the inhibition at 100 µg/mL ([4]; Xanthomonas axonopodis) was 76%. The inhibition at 200 µg/mL ([4]; Xanthomonas axonopodis) was 88%, the “Phytotoxic effect” value (tobacco leaves; [10]) was “no apparently phytotoxicity” and the “Necrosis (lesion diameter)” value (tobacco leaves; in vivo) was 0.2–0.3 cm. For the same molecule, the “Phytotoxic effect” value (tobacco leaves; in vivo) was “no or negligible phytotoxic effect”, the “Phenotypic effect on rice seedlings” value ([5]; concentration (1–300 μM)) was “no apparently phytotoxicity” and the “Phenotypic effect on rice seedlings” value ([5]; in vivo) was “predominantly inhibited root growth while allowing moderate shoot development”. It also gave an EC50 (Ralstonia solanacearum [6]; Ralstonia solanacearum) of 13.4 ± 1.54 µg/mL (≈ 46.5 µM), an inhibition at 100 µg/mL (Ralstonia solanacearum [6]; Ralstonia solanacearum) of 100% and an inhibition at 200 µg/mL (Ralstonia solanacearum [6]; Ralstonia solanacearum) of 100%.
